Data published in patent publication US20080003635A1, “High Throughput Collagen Synthesis Assay” (InterMune, Inc., priority 2006, published 2008).
Where two headings read alike, the source gives them in different places.

Test system: Human lung fibroblast cells HFL1
Experiment: cells
Type: cell-based
Procedure: Human lung fibroblast cells HFL1 were seeded as 5×10^4 cells/well in 48-well plate and cultured for 3-7 days in FK12 medium supplemented with 10% heat inactivated fetal calf serum, 2 mM L-glutamine, streptomycin (100 μg/ml), and penicillin (100 units/ml). […] Medium was removed and cells were fixed to the plate with 0.5% glutaraldehyde, prepared in 1× phosphate-buffered-saline (PBS), for 30 minutes at room temperature. Glutaraldehyde was removed, cells were washed with ddH2O and the first 24 wells, which were used to determine collagen synthesis, were treated with 0.5 M acetic acid for 30 minutes, while the second 24 wells were stained with 0.1% crystal violet for viability for 30 minutes at room temperature. After all of the wells were washed with ddH2O, 250 μl of Sirius Red was added to acetic acid-treated cells for 2 hours. The Sirius Red was then removed, and the wells were washed with ddH2O. Absorbed Sirius Red and crystal violet were eluted with 300 μl of alkaline solution and 0.1 M citric acid (pH: 4.2) prepared in 50% ethanol, respectively.
Absorbances of eluted Sirius Red and crystal violet were determined at 540 and 600 nm. The extent of collagen accumulation was determined by normalizing the levels of induced collagen to cell density.

## Cc1ccc(=O)n(-c2ccccc2)c1 [P, pirfenidone]
HFL1, 24 h, read-out: Fold Induction of Collagen, 250 pg/ml TGF-β, 24 hrs., P 1 mM, A 300 pg/mL
  fold induction at 1000 µM: 0.973
HFL1, 24 h, read-out: Fold Induction of Collagen, 500 pg/ml TGF-β, 24 hrs., P 1 mM, A 300 pg/mL
  fold induction at 1000 µM: 0.98
HFL1, 24 h, read-out: Fold Induction of Collagen, 1000 pg/ml TGF-β, 24 hrs., P 1 mM, A 300 pg/mL
  fold induction at 1000 µM: 0.998
HFL1, 48 h, read-out: Fold Induction of Collagen, 250 pg/ml TGF-β, 48 hrs., P 1 mM, A 300 pg/mL
  fold induction at 1000 µM: 0.997
HFL1, 48 h, read-out: Fold Induction of Collagen, 500 pg/ml TGF-β, 48 hrs., P 1 mM, A 300 pg/mL
  fold induction at 1000 µM: 0.884
HFL1, 48 h, read-out: Fold Induction of Collagen, 1000 pg/ml TGF-β, 48 hrs., P 1 mM, A 300 pg/mL
  fold induction at 1000 µM: 0.954
HFL1, 72 h, read-out: Fold Induction of Collagen, 250 pg/ml TGF-β, 72 hrs., P 1 mM, A 300 pg/mL
  fold induction at 1000 µM: 0.928
HFL1, 72 h, read-out: Fold Induction of Collagen, 500 pg/ml TGF-β, 72 hrs., P 1 mM, A 300 pg/mL
  fold induction at 1000 µM: 0.931
HFL1, 72 h, read-out: Fold Induction of Collagen, 1000 pg/ml TGF-β, 72 hrs., P 1 mM, A 300 pg/mL
  fold induction at 1000 µM: 0.917
